Reference: patent US20090175981A1, “COMPOSITIONS, METHODS AND USES FOR A NOVEL FAMILY OF PEPTIDES” (priority 2004, published 2009)
“And” between values parts separate entries of the source, which are not always exact repeats. Identical values can stand only once. Marks after values point to notes of the source that are not given here.

Key:
[1] = tested on: straight run broilers; assay: Growth and feed conversion of 3-wk old broilers in batteries, pelleted starter feed (Studies 3-1 and 3-2); type: in vivo, chicken
Source text: Eight (8) study repetitions per treatment were used, again with 4 birds per pen.

[2] = tested on: E. coli; assay: In vitro antimicrobial MIC, E. coli; type: cell-based
Method: (§1) MIC determination assays. Staphylococcal aureus was grown to mid-log phase in LB at 37° C., and diluted by 500-fold with fresh LB and dispensed into 96-well micro-titer plates. Different concentrations of peptides were added, and the micro-titer plates were incubated at 37° C. with shaking. A minimal inhibition concentration (MIC) was determined as the lowest peptide concentration that produced a clear well. All experiments were performed in triplicates, and highly consistent MICs were obtained.
(§2) For Gram (−) the following were the antimicrobial activities observed: E. coli: MIC>20 microgram/ml; Pseudomonas and Salmonella: MIC>100 microgram/ml.

[3] = tested on: Salmonella; assay: In vitro antimicrobial MIC, Salmonella; type: cell-based
Method: as §1, §2

[4] = type: physicochemical; conditions: pH 1.0 plus 100° C. overnight
[5] = tested on: straight run broilers; assay: Growth and feed conversion of 20-day old broilers in batteries, mash feed (Studies 2-1 and 2-2); type: in vivo, chicken
Method: Briefly, the peptide was used in a semi-purified form to study the growth and feed conversion of […] old straight run broilers in batteries (Studies 2-1 and 2-2). Two amounts were tested against a feed control, peptide at 6 ppm and peptide at 12 ppm, 12 repetitions were carried out per treatment with 4 birds per pen. The diet used in the study was as follows.

[6] = tested on: Staphylococcal aureus; assay: MIC determination assay / antibiotic activity of synthetic BT variants; type: cell-based; conditions: FIG. 6B
Method: as §1

[7] = tested on: food-producing animals; assay: Growth promotion in food-producing animals (overall statement); type: in vivo, chicken; conditions: used to promote growth
Source text: Alternatively, but in no way limiting the present invention, the present invention may be used as an animal-use only antibiotic for bacterial infections.

[8] = tested on: Broiler Chicken; assay: Growth promoting battery Studies 1-1 and 1-2; type: in vivo
[9] = tested on: broiler chickens; assay: 42-day broiler floor pen trial with natural colibacillosis challenge; type: in vivo, chicken
Method: A broiler floor pen trial to compare the performance of a new anti-microbial designated for this project as BT1583 alone and in combination with the widely used coccidiostat monensin (MON) to MON fed alone, MON in combination with the also widely used antimicrobial Bacitracin MD (BMD) and BMD alone.
The following levels of each treatment were evaluated:
The study design included 10 pens per treatment and 40 birds per pen housed on day of hatch. Two basal corn-soy based diets of decreasing protein (approximately 23 to 20%) and increasing metabolizable energy (approximately 1400 to 1455 kcal/lb) were used from Day 0 to 21 (starter feed) and Days 22 to 42 (grower feed), respectively. Treatment premixes were measured and blended into diets at required levels. Between days 0 and 21 mortality was less than 1% with all birds growing optimally and of high health across all groups.
Beginning on study day 22, the study director modulated house temperature and air flow to mimic industry conditions conducive to outbreaks of colibacillosis within naïve broiler flocks. This was done to stimulate a natural challenge for this study. Mortality climbed to a house average of approximately 10% by Day 42. A majority of these deaths occurred in groups not receiving BT1583 or MON. Lesions were consistent with those of colibacillosis (air sac, pneumonia, peri-hepatitis, peri-carditis and extreme morbidity). All mortality was documented (weight at death and post-mortem observations). All birds and feeds were weighed at 42 days. All remaining birds were euthanized on Day 42 by asphyxiation with the carcasses submitted for rendering.
The following variables were tested: Response Variables: Gain Per Bird, Feed Per Gain, Mortality (%), Adjusted Feed Per Gain. F test from One Way ANOVA with one blocking factor=location, at Day 42 using 0.05 level of significance.
All Response Variables: LSD T-test procedure for pair-wise comparisons with Type 1 error of means when ANOVA F ratio is significant, overall significance level of 0.05 used. Lines below means (see Table 30, below) indicate groups with insignificant differences in means.
Adjusted Feed/Gain: The total weight of mortality in each pen was added to the final live weight, that value reduced by subtracting the initial weight and then dividing that value into the Total feed consumed to calculate the Adjusted Feed/Gain.

[10] = tested on: Broiler Chicken; assay: Growth promoting Studies 4-1 and 4-2 with direct coccidial challenge; type: in vivo
[11] = tested on: Gram-positive bacteria; assay: In vitro antibacterial MIC, Gram-positive bacteria; type: cell-based; conditions: most Gram (+)
Method: as §1, §2

[12] = tested on: Tetrahymena; assay: In vitro anti-protozoal MIC; type: cell-based
[13] = biological target: T1, carboxypeptidase Y (Saccharomyces cerevisiae, UniProt P00729)
T1 sequence (P00729 112-532): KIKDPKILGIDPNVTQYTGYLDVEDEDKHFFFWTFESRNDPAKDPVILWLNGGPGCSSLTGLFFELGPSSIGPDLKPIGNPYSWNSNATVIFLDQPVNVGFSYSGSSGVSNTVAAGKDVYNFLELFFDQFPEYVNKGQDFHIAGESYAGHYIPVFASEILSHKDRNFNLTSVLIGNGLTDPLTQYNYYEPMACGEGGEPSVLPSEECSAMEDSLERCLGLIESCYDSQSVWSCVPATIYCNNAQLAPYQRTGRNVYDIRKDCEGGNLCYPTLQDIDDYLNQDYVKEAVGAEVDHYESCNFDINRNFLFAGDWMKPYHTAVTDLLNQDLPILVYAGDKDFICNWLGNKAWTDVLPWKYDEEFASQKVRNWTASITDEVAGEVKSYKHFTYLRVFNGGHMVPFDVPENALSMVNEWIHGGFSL

[14] = tested on: Pseudomonas; assay: In vitro antimicrobial MIC, Pseudomonas; type: cell-based
Method: as §1, §2

[15] = tested on: S. cerevisiae; assay: In vitro antifungal MIC; type: cell-based
[16] = BT1583 12 ppm, BMD 50 ppm, COB 90 ppm, alone or combined, pelleted feed
[17] = MON 99 ppm, BT1583 12 ppm, BMD 55 ppm, alone or combined
[18] = Study 4-1, 24 ppm with direct coccidial challenge
[19] = Study 4-2, 48 ppm with direct coccidial challenge

With “Me2Bmt-L-dO-I-V-V-dK-V-dL-K-dY-L-V-CH2OH [BT1583]” the “20-day cumulative feed conversion rate, Mean” value [1, 16] was 1.3308, the “21-day cumulative feed conversion rate, Estimated Marginal Mean” value [1, 16] was 1.331 and the “21-day cumulative weight gain, Mean” value [1, 16] was 831.7396 and 831.740. The “Additional weight gain (%)” value ([1]; Study 3-1, 12 ppm) was 16%, the “Feed conversion improvement (point)” value ([1]; Study 3-1, 12 ppm) was 9 point and the “Additional weight gain (%)” value ([1]; Study 3-2, 12 ppm with Coban) was 5.4%. The “Feed conversion improvement (point)” value ([1]; Study 3-2, 12 ppm with Coban (vs Coban alone)) was 9 point, the MIC [2] was greater than 20 microgram/ml and the MIC [3] was greater than 100 microgram/ml. For the same substance, the in vitro inactivation [4] was “only known in vitro method to inactivate it is pH 1.0 plus 100 °C overnight”, the “20-day cumulative feed conversion rate, Mean” value ([5]; 6 ppm in mash feed) was 1.5065 and 1.506 and the “20-day cumulative weight gain, Mean” value ([5]; 6 ppm in mash feed) was 591.975. The “20-day cumulative feed conversion rate, Mean” value ([5]; 12 ppm in mash feed) was 1.4959 and 1.496, the “20-day cumulative weight gain, Mean” value ([5]; 12 ppm in mash feed) was 618.934 and the “Additional weight gain (%)” value ([5]; Study 2-1, 6 ppm) was 6.7%. The “Feed conversion improvement (point)” value ([5]; Study 2-1, 6 ppm) was 9 point, the “Additional weight gain (%)” value ([5]; Study 2-2, 12 ppm) was 11% and the “Feed conversion improvement (point)” value ([5]; Study 2-2, 12 ppm) was 10 point. For the same substance, the antibiotic activity [6] was “full antibiotic activity”, the feed conversion gain [7] was “about 10 points” and the “Additional weight gain (%)” value ([8]; Study 1-1, 10 ppm) was 17%. For the same substance, the “Feed conversion improvement (point)” value ([8]; Study 1-1, 10 ppm) was 7 point, the “Additional weight gain (%)” value ([8]; Study 1-2, 30 ppm) was 17% and the “Feed conversion improvement (point)” value ([8]; Study 1-2, 30 ppm) was 8 point. The efficacy against colibacillosis ([9]; 3 to 4 week old naïve broiler chickens, simulated commercial conditions) was “highly effective”, the “feed/gain advantage over monensin and BMD fed alone and in combination” value ([9]; Day 42) was no less than 10 point and the “weight gain advantage over monensin and BMD fed alone and in combination” value ([9]; Day 42) was no less than 20 point. For the same substance, the “Day 42 Feed/Gain” value [9, 17] was 1.722^ab, the “Day 42 Gain/Bird” value [9, 17] was 4.333^ab lb and the “Day 42 Mortality (%)” value ([9]; acute and chronic colibacillosis, MON 99 ppm, BT1583 12 ppm, BMD 55 ppm) was 2.75^a %. For the same substance, the “Day 42 Adjusted Feed/Gain” value ([9]; adjusted for weight of mortality, MON 99 ppm, BT1583 12 ppm, BMD 55 ppm) was 1.704^ab, the “mortality rate compared with non-supplemented controls” value ([9]; alone or in combination) was “lower mortality rates” and the “Additional weight gain (%)” value [10, 18] was 7.1%. The “Feed conversion improvement (point)” value [10, 18] was 13 point, the “Additional weight gain (%)” value [10, 19] was 9.3% and the “Feed conversion improvement (point)” value [10, 19] was 17 point. For the same substance, the MIC [11] was 1 microgram/ml, the MIC [12] was 25 microgram/ml and the “cleavage by carboxypeptidase Y” value [13] was “resistant”. For the same substance, the MIC [14] was greater than 100 microgram/ml and the MIC [15] was 50 microgram/ml.
